According to US20200079758A1, “[4-(PHENYLSULFONYL)PIPERAZIN-1-YL](1H-1,2,3-TRIAZOL-4-YL)METHANONES” (priority 2016, published 2020):

Molecular target: T1, recombinant human AKR1C3 (Homo sapiens, UniProt P42330)
T1 construct: GST (cleaved yes); made in house; host or cells: E. coli
T1 sequence (P42330 1-323): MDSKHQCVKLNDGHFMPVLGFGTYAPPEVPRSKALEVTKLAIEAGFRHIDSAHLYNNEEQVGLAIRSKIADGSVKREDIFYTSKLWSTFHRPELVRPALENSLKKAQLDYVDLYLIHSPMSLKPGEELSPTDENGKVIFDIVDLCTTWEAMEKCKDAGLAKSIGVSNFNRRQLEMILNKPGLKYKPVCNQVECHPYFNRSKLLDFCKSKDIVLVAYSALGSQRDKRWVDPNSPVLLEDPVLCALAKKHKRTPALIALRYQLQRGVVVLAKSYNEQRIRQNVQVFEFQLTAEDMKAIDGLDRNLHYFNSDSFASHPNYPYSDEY
Assay: AKR1C3-inhibitory activity assay (generation of Coumberol from Coumberone)
Type: biochemical
Details: Coumberone 0.3 μM, NADPH 10 μM, 22° C., typically 90 min, average or median values
Procedure, shortened: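 Recombinant human AKR1C3 (E. coli GST fusion, GST removed; ~1 nM) preincubated 15 min with compound, then NADPH 10 μM and Coumberone 0.3 μM (final), 22 °C, typically 90 min, in 50 mM K-phosphate pH 7. Stopped with EM-1404 (1 μM final); Coumberol fluorescence read at 520 nm (ex 380 nm), normalized to no-inhibitor and no-enzyme controls.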

Compound | IC50 [nM]
C[C@@H]1CN(S(=O)(=O)c2ccccc2C#N)[C@@H](C)CN1C(=O)c1cnn[nH]1 (stereo in doubt) [Example 14, 2-{[(2S,5R)-2,5-dimethyl-4-(1H-1,2,3-triazol-5-ylcarbonyl)piperazin-1-yl]sulfonyl}benzonitrile] | 439
C[C@@H]1CN(C(=O)c2c[nH]nn2)[C@@H](C)CN1S(=O)(=O)c1cccc(C(F)(F)F)c1 [Example 12, [(2S,5R)-2,5-dimethyl-4-{[3-(trifluoromethyl)phenyl]sulfonyl}piperazin-1-yl](1H-1,2,3-triazol-4-yl)methanone] | 1
Cc1ccc(C)c(S(=O)(=O)N2C[C@H](C)N(C(=O)c3cnn[nH]3)C[C@H]2C)c1 [Example 70, {(2S,5R)-4-[(2,5-dimethylphenyl)sulfonyl]-2,5-dimethylpiperazin-1-yl}(1H-1,2,3-triazol-5-yl)methanone] | 1
CC1(C)CN(C(=O)c2cnn[nH]2)CCN1S(=O)(=O)c1cccc(Cl)c1Cl [Example 119, {4-[(2,3-dichlorophenyl)sulfonyl]-3,3-dimethylpiperazin-1-yl}(1H-1,2,3-triazol-5-yl)methanone] | 9
C[C@@H]1CN(S(=O)(=O)c2cccc(F)c2)C[C@H](C)N1C(=O)c1c[nH]nn1 [Example 52, {(2R,6S)-4-[(3-fluorophenyl)sulfonyl]-2,6-dimethylpiperazin-1-yl}(1H-1,2,3-triazol-4-yl)methanone] | 9
Cc1cc(C)cc(S(=O)(=O)N2CCN(C(=O)c3c[nH]nn3)CC2(C)C)c1 [Example 22, {4-[(3,5-dimethylphenyl)sulfonyl]-3,3-dimethylpiperazin-1-yl}(1H-1,2,3-triazol-4-yl)methanone] | 2
C[C@@H]1CN(C(=O)c2cnn[nH]2)[C@@H](C)CN1S(=O)(=O)c1ccccc1 [Example 1, [(2S,5R)-2,5-dimethyl-4-(phenylsulfonyl)piperazin-1-yl](1H-1,2,3-triazol-5-yl)methanone] | 2
C[C@@H]1CN(C(=O)c2cnn[nH]2)C[C@H](C)N1S(=O)(=O)c1cccc(F)c1 [Example 41, {(3R,5S)-4-[(3-fluorophenyl)sulfonyl]-3,5-dimethylpiperazin-1-yl}(1H-1,2,3-triazol-5-yl)methanone] | 9
C[C@@H]1CN(C(=O)c2cnn[nH]2)C[C@H](C)N1S(=O)(=O)c1cccc(Cl)c1 [Example 39, {(3R,5S)-4-[(3-chlorophenyl)sulfonyl]-3,5-dimethylpiperazin-1-yl}(1H-1,2,3-triazol-5-yl)methanone] | 3
CC1(C)CN(C(=O)c2c[nH]nn2)CCN1S(=O)(=O)c1cccc(F)c1 [Example 20, {4-[(3-fluorophenyl)sulfonyl]-3,3-dimethylpiperazin-1-yl}(1H-1,2,3-triazol-4-yl)methanone] | 11
COc1ccccc1S(=O)(=O)N1CCN(C(=O)c2cnn[nH]2)CC1(C)C [Example 130, {4-[(2-methoxyphenyl)sulfonyl]-3,3-dimethylpiperazin-1-yl}(1H-1,2,3-triazol-5-yl)methanone] | 38
C[C@@H]1CN(C(=O)c2cnn[nH]2)[C@@H](C)CN1S(=O)(=O)c1cccc(C#N)c1 [Example 83, 3-{[(2R,5S)-2,5-dimethyl-4-(1H-1,2,3-triazol-5-ylcarbonyl)piperazin-1-yl]sulfonyl}benzonitrile] | 3
CC1(C)CN(C(=O)c2cnn[nH]2)CCN1S(=O)(=O)c1ccc(Cl)cc1 [Example 110, {4-[(4-chlorophenyl)sulfonyl]-3,3-dimethylpiperazin-1-yl}(1H-1,2,3-triazol-5-yl)methanone] | 5
C[C@@H]1CN(C(=O)c2cnn[nH]2)[C@@H](C)CN1S(=O)(=O)c1cc(Cl)ccc1Cl [Example 4, {(2S,5R)-4-[(2,5-dichlorophenyl)sulfonyl]-2,5-dimethylpiperazin-1-yl}(1H-1,2,3-triazol-5-yl)methanone] | 2
CC1(C)CN(C(=O)c2cnn[nH]2)CCN1S(=O)(=O)c1cc(Cl)ccc1F [Example 127, {4-[(5-chloro-2-fluorophenyl)sulfonyl]-3,3-dimethylpiperazin-1-yl}(1H-1,2,3-triazol-5-yl)methanone] | 4
